For one experiment, the target named is T1, wild type EGFR TKD (Homo sapiens, UniProt P00533).
T1 construct: hexa-histidine (6x His) (N); made in house; host or cells: Spodoptera frugiperda Sf9 (baculovirus, pFastBac1)
The experiment in a line: Michaelis-Menten kinetics (KM,ATP, KM,pept). The experiment is classed as biochemical.

The next experiment concerns the target T2, EGFR TKD ΔL747-A750InsP (Homo sapiens, UniProt P00533, A750P/DEL747-749).
T2 construct: 6x His (N); made in house; host or cells: Spodoptera frugiperda Sf9 (baculovirus)
The experiment in a line: Michaelis-Menten kinetics (KM,ATP, KM,pept). In kind it is biochemical.

The target in the next experiment is T3, EGFR TKD L747P (Homo sapiens, UniProt P00533, L747P).
T3 construct: 6x His (N); made in house; host or cells: Spodoptera frugiperda Sf9 (baculovirus)
Description: Michaelis-Menten kinetics (KM,ATP, KM,pept). The experiment is classed as biochemical.

For a further experiment, the target named is T4, EGFR TKD ΔE746-A750 (Homo sapiens, UniProt P00533, DEL746-750).
T4 construct: 6x His (N); made in house; host or cells: Spodoptera frugiperda Sf9 (baculovirus)
The experiment in a line: Michaelis-Menten kinetics (KM,ATP, KM,pept). The experiment is classed as biochemical. The following applies: read-out: Best fit KM,ATP; individual experiments (Fig. 3b data).

Another experiment has as its target T5, EGFR TKD ΔE746-T751InsA (Homo sapiens, UniProt P00533, DEL746-750/T751A).
T5 construct: 6x His (N); made in house; host or cells: Spodoptera frugiperda Sf9 (baculovirus)
Description: Michaelis-Menten kinetics (KM,ATP, KM,pept). The experiment is classed as biochemical.

A further experiment concerns the target T6, EGFR TKD ΔL747-T751InsP (Homo sapiens, UniProt P00533, DEL747-750/T751P).
T6 construct: 6x His (N); made in house; host or cells: Spodoptera frugiperda Sf9 (baculovirus)
The experiment in a line: Michaelis-Menten kinetics (KM,ATP, KM,pept). The experiment is classed as biochemical. The following applies: read-out: Best fit KM,ATP; individual experiments (Fig. 3b data).

Another experiment deals with T7, EGFR TKD ΔL747-P753InsS (Homo sapiens, UniProt P00533, DEL747-752/P753S).
T7 construct: 6x His (N); made in house; host or cells: Spodoptera frugiperda Sf9 (baculovirus)
Description: Michaelis-Menten kinetics (KM,ATP, KM,pept). The experiment is classed as biochemical.

In a further experiment the target is T8, EGFR TKD ΔS752-I759 (Homo sapiens, UniProt P00533, DEL752-759).
T8 construct: 6x His (N); made in house; host or cells: Spodoptera frugiperda Sf9 (baculovirus)
Description: Michaelis-Menten kinetics (KM,ATP, KM,pept). In kind it is biochemical.

The next experiment deals with T9, EGFR TKD L858R (Homo sapiens, UniProt P00533, L858R).
T9 construct: 6x His (N); made in house; host or cells: Spodoptera frugiperda Sf9 (baculovirus)
Description: Michaelis-Menten kinetics (KM,ATP, KM,pept). The experiment is classed as biochemical.

The next experiment concerns the target T10, EGFR TKD L858R/T790M (Homo sapiens, UniProt P00533, L858R/T790M).
T10 construct: 6x His (N); made in house; host or cells: Spodoptera frugiperda Sf9 (baculovirus)
The experiment in a line: Michaelis-Menten kinetics (KM,ATP, KM,pept). In kind it is biochemical. Particulars: read-out: Best fit KM,ATP; individual experiments (Fig. 3b data).

The target in another experiment is EGFR TKD ΔL747-E749 (Homo sapiens, UniProt P00533, DEL747-749). Description: Michaelis-Menten kinetics (KM,ATP).
Setting [1] is: read-out: Best fit KM,ATP, individual experiments (Fig. 3b data).
Where [2] appears, read: read-out: KM, ATP, 20 μM peptide, mean ± SD.

“And” between values parts separate entries of the source, which are not always exact repeats. Identical values can stand only once. Like-named read-outs stand apart in the source and are kept apart here.

As for `Nc1ncnc2c1ncn2[C@@H]1O[C@H](COP(=O)(O)OP(=O)(O)OP(=O)(O)O)[C@@H](O)[C@H]1O` [ATP], the Km on wild type EGFR TKD (setting [1]) was 9.32 µM and 7.22 µM and 7.98 µM and 15.8 µM and 15.6 µM and 15 µM and 12.6 µM and 10.1 µM; on wild type EGFR TKD (setting [2]) it was 12 ± 3 µM; on EGFR TKD ΔL747-A750InsP (setting [1]) it was 23.6 µM and 15.4 µM and 18.7 µM and 31.1 µM and 32.5 µM and 29.2 µM and 22.7 µM and 20.1 µM and 16.8 µM; on EGFR TKD ΔL747-A750InsP (setting [2]), 23 ± 6 µM; on EGFR TKD L747P (setting [1]), 16.8 µM and 14.6 µM and 12.5 µM and 19.3 µM and 21.2 µM and 21.7 µM and 28.8 µM and 29.4 µM and 26 µM; at EGFR TKD L747P (setting [2]), 21 ± 6 µM. Also, the Km at EGFR TKD ΔE746-A750 was 194 µM and 149 µM and 116 µM and 126 µM; on EGFR TKD ΔE746-T751InsA (setting [1]) it was 216 µM and 285 µM and 228 µM and 263 µM and 287 µM and 318 µM; at EGFR TKD ΔE746-T751InsA (setting [2]), 240 ± 59 µM; on EGFR TKD ΔL747-T751InsP it was 93.5 µM and 183 µM and 100 µM and 217 µM and 135 µM and 204 µM and 224 µM; at EGFR TKD ΔL747-P753InsS (setting [1]), 115 µM and 93.7 µM and 90.2 µM and 86 µM and 70.3 µM and 87.6 µM and 138 µM and 132 µM and 99.9 µM; at EGFR TKD ΔL747-P753InsS (setting [2]), 101 ± 22 µM. For the same compound, the Km on EGFR TKD ΔS752-I759 (setting [1]) was 124 µM (2×) and 122 µM and 82.8 µM (2×) and 79.2 µM and 65.9 µM and 75.6 µM and 64.3 µM; at EGFR TKD ΔS752-I759 (setting [2]), 91 ± 25 µM; at EGFR TKD L858R (setting [1]) it was 89.3 µM and 87.4 µM and 87.6 µM and 63.1 µM and 77.3 µM and 74.5 µM and 60.1 µM and 51.1 µM; at EGFR TKD L858R (setting [2]) it was 74 ± 14 µM; on EGFR TKD L858R/T790M it was 48 µM and 47.5 µM and 38.9 µM and 35.3 µM and 47.4 µM and 56.3 µM and 50.7 µM; on EGFR TKD ΔL747-E749 (setting [1]), 10.3 µM and 8.84 µM and 8.25 µM and 18.4 µM and 22.3 µM and 26.3 µM and 7.28 µM and 5.87 µM and 5.78 µM. For the same compound, the Km at EGFR TKD ΔL747-E749 (setting [2]) was found to be 13 ± 8 µM. The “KM, ATP for L747P smaller than for ΔE746-A750” value at EGFR TKD L747P is 7.5 fold.

The record behind these values is paper PMC9649653, “Biochemical and structural basis for differential inhibitor sensitivity of EGFR with distinct exon 19 mutations” (Nature Communications, 2022).
